Experimental data: patent publication US6861524B2, “Acyl and sulfonyl derivatives of 6,9-disubstituted 2-(trans-1,4-diaminocyclohexyl)-purines and their use as antiproliferative agents” (Aventis Pharmaceuticals Inc., priority 2000, dated 2005)
pIC50: −log10 of the molar value. Structures can show the parent of a compound that is named as a salt.

How the values were obtained:
cdk1/cyclin B = cdk1/cyclin B (Homo sapiens, UniProt P06493); test: Cyclin-dependent kinase assay, cdk1/cyclin B (Histone H1 substrate)
cdk1/cyclin B, sequence (P06493 whole entry): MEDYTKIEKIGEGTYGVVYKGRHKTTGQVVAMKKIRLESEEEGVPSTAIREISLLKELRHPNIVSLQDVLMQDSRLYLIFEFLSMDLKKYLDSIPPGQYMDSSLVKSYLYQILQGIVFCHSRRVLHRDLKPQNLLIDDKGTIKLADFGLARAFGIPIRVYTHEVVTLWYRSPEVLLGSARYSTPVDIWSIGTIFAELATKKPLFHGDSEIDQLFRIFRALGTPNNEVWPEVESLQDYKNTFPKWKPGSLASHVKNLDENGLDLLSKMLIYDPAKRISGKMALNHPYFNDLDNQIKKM
cdk1/cyclin B, sequence (P14635 whole entry partner): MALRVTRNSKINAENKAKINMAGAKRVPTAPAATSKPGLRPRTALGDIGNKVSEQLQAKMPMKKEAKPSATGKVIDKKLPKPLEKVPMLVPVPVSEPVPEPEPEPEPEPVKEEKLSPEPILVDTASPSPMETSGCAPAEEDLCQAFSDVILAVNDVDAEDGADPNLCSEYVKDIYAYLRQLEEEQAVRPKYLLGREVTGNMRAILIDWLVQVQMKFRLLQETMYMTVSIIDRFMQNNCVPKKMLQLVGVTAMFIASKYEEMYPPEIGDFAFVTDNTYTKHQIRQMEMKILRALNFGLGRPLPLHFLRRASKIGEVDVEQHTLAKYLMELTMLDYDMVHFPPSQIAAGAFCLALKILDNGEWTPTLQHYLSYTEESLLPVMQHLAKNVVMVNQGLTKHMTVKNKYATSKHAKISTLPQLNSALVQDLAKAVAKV
Experimental: The IC50 values for cdk1/cyclin B, cdk2/cyclin E, and cdk4/cyclin D1 inhibition are determined using the following methods:
The cdk1 sequence (accession number Y00272) is amplified by PCR and cloned into the BamHI and SalI sites of pFASTBAC1 (Life Technologies).
The cyclin B1 sequence (accession number M25753) is amplified by PCR and cloned into the BamHI and SalI sites of pFASTBAC1 (Life Technologies).
The cDNA for each of the cyclin-dependent kinases (CDK) and the corresponding cyclins are cloned into the baculovirus expression vector, pFASTBAC1 (Life Technologies). The sequences of each of the constructs are confirmed by automated fluorescent DNA sequencing according to the manufacture's protocol (Perkin Elmer/Applied Biosystems Inc).
The insect cell (Sf9) expression is optimized for each of the CDK/cyclin pairs according to the manufacturer's protocols (Life Technologies).
The viruses are added to the cells and the culture is incubated at 27° C. for the desired time. The cells are harvested by centrifugation at 3000 rpm for 10 minutes. The cells are snap frozen on dry ice and stored at −80° C.
Cell extracts are made following a standard procedure. The cell pellet is resuspended in lysis buffer (50 mM HEPES, pH 8.0, 10 mM MgCl2, 1 mM DTT, 2.5 mM EGTA, 1 mM EDTA, 10 mM β-glycerophosphate, 1 mM sodium vanadate, 1 mM sodium fluoride, 1×Protease inhibitor cocktail). The cells are lysed using the microfluidizer (Microfluidics) for 20 minutes. Cell debris is removed by centrifugation at 100,000×g. The cell extracts are aliquoted in 1 ml aliquots, frozen on dry ice, and stored at −80° C.
The kinase reactions are performed following a standard procedure. The enzyme and inhibitor are diluted in kinase buffer (50 mM HEPES, pH 8.0, 10 mM MgCl2, 2.5 mM EGTA, 10 mM β-glycerophosphate, 1 mM sodium vanadate, 1 mM sodium fluoride, and 1 mM DTT) and pre-incubated for 30 minutes. […] The cdk1 enzyme activity is assayed using Histone H1 (Sigma) in the presence of 10 μM ATP for 30 min at room temperature. The reactions are terminated by the addition of 50 μL of 10 mM cold ATP to stop the reactions. The reactions are transferred to a pre-soaked 96-well multi-screen plate containing 30 μL of 100% TCA per well. After incubation for one hour at room temperature, the plates are washed twice with 200 μl of 20% TCA, followed by 200 μl of 10% TCA and finally with 200 μl of 5% TCA. After drying the plates at room temperature, the filter plates are placed in adapter plates (Packard) and 40 μl of Microscint-O® (Packard) is added to each well. Top Seal A film is used to cover the plates before counting in a Top Count Scintillation Counter.
The % remained activity of the indicated Cdk/cyclin kinase complex in the presence of inhibitor is calculated by the ratio of cpm in the presence of inhibitor to cpm in the absence of inhibitor (% Activity=vi/vo×100%).

cdk4/cyclin D1 = cdk4/cyclin D1 (Homo sapiens, UniProt P11802); test: Cyclin-dependent kinase assay, cdk4/cyclin D1 (GST-pRb substrate); assay type: biochemical; conditions: inhibition of cyclin D1/CDK 4 enzyme activity
cdk4/cyclin D1, sequence (P11802 whole entry): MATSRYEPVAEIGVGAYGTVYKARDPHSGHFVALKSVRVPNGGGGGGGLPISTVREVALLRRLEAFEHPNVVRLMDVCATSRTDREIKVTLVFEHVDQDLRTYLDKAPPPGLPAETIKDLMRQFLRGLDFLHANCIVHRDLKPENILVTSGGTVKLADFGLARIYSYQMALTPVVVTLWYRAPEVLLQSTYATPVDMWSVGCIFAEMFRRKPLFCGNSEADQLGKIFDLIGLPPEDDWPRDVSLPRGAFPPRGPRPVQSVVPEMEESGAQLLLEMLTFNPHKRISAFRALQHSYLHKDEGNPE
cdk4/cyclin D1, sequence (P24385 whole entry partner): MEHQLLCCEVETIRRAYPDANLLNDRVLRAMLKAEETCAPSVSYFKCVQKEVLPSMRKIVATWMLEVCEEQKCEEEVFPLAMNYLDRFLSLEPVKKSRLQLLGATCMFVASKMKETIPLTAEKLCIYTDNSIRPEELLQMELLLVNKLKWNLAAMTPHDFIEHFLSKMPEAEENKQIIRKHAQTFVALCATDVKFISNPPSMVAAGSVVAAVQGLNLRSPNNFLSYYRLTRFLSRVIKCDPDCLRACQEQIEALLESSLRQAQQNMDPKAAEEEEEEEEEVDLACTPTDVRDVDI

[1] = Plasma pharmacokinetics in mice after single intravenous cassette doses; conditions: mice; for Mean concentration in plasma: single 18 mg/kg intravenous cassette dose (Cassette #1)
Experimental: Male mice are given single intravenous cassette doses of CDK inhibitor compounds.
A single intravenous cassette dose (18 or 15 mg/kg free base) is administered. For each compound, this is equivalent to a dose of approx. 3 mg/kg free base. […] The dose is administered at a volume of 10 ml/kg (total volume of approximately 0.25 ml/animal).
Male mice (Hsd:ICR (CD-1® SD®), Harlan), each weighing approximately 20-30 g at the start of the study. […] Water is available ad libitum throughout the study.
A single cassette dose of 5-6 compounds is administered by bolus injection into the tail vein over a 10-15-second period. […] Whole blood (approximately 0.6 ml/sample) is obtained by cardiac puncture and transferred to 3 ml glass tubes containing 45 U sodium heparin.
Sample Processing: Plasma: Whole blood is centrifuged at approximately 3,200 rpm for 10 min at approximately 5° C. and the plasma (approx. 0.3 ml/sample) is transferred to chilled plastic vials and stored at approx. −70° C. until bioanalysis.
Sample Analysis: Concentrations of each test article in plasma are quantitated by a non-validated method based on LC/MS using the following protocol.
Samples are removed from the freezer, allowed to thaw at room temperature, and vortexed to insure complete homogenization prior to sample manipulation. Samples are then prepared according to the following scheme: • 1. transfer 48 μL of plasma (blank mouse sample) into a 12×75 mm test tube. • 2. add 12 μL of working standard to the blank plasma for standard curve preparation. • 3. […] Inject 25 μL on LC/MS. Chromatographic Conditions:
Data Analysis: Concentrations of Compounds in plasma of individual animals are determined by bioanalytics. […] Statistical analyses are limited to simple expressions of variation (mean and standard deviation). The plasma AUC (area-under-curve) is determined by the linear trapezoidal rule. […] All PK parameters are determined by noncompartmental methods using WinNonlin version 3.0 (Pharsight Corp).
The following information is based on a graph of the semi-log of the plasma concentration in ng/ml versus collection time in hours. • “Cmax” represents the maximum plasma concentration. • “t1/2” represents the half-life of the compound. • “AUC0-∞” represents the calculated area under the curve. • “AUC % Extrap(obs.)” represents the extrapolated area under the curve. • “Cls” is the clearance rate.

[2] = Red blood cell binding (RBC to plasma ratio), human whole blood; assay type: in vitro ADME; conditions: 30 minutes at 37° C., nominal 500 ng/ml
Experimental: (§1) Compounds, including one positive control, are assessed for red blood cell (RBC) uptake, using a modified procedure based on the protocol reported in Sun, J. X. S., et al. High-performance liquid chromatographic analysis, plasma protein binding and red blood cell partitioning of phenprobamate. Biopharmaceutics and Drug Disposition, 8 (1987) 341-351.
(§2) Briefly, RBC uptake is evaluated by comparison of the levels in spiked plasma (n=3) and plasma isolated from spiked whole blood (n=3). Compounds are incubated with human and mouse whole blood, respectively, for 30 minutes at 37° C. using a nominal concentration of 500 ng/ml. Following centrifugation, the plasma is removed and submitted for analysis. Each compound is also spiked into blank plasma at a nominal concentration of 500 ng/ml, and submitted for analysis. Levels in the two plasma samples (Cp′ and Cp in the equation below) and the blood hematocrit are used to determine the red blood cell to plasma ratio (Crbc/Cp). [formula] In equation 1, Cp′ is the level of drug in the spiked “blank” plasma, Cp is the level of drug in the plasma of spiked whole blood, and H is the hematocrit. The hematocrit values are determined as 0.4 for human whole blood and 0.41 for mouse whole blood. The samples are analyzed with ESI LC/MS, using positive ion detection with an internal standard.
(§3) The red blood cell to plasma ratio is determined for each compound using equation 1. Tables 6 and 7 summarize the respective mean Crbc/Cp values and standard deviations for mouse and human whole blood, respectively, in descending order based on the red blood cell to plasma ratio, where “*” denotes Positive Control, and “ND” denotes Not Determined. MDL 108552 is included as a positive control for red blood cell uptake.

[3] = Red blood cell binding (RBC to plasma ratio), mouse whole blood; assay type: in vitro ADME; conditions: 30 minutes at 37° C., nominal 500 ng/ml, hematocrit 0.41
Experimental: as §1, §2, §3

[4] = Cassette #4, single 15 mg/kg iv cassette dose (3 mg/kg/compound), 8 h
[5] = Cassette #4, single 15 mg/kg iv cassette dose (3 mg/kg/compound), 24 h
[6] = Cassette #3, single 15 mg/kg iv cassette dose (3 mg/kg/compound), 24 h
[7] = 24 h, BLQ = below assay quantification limit (approx. 1 ng/ml)

CCCCc1ccc(C(=O)N2CCC(Nc3nc(N[C@H]4CC[C@H](N)CC4)nc4c3ncn4C3CCCC3)CC2)cc1 [Compound 21, trans-1-{4-[2-(4-Amino-cyclohexylamino)-9-cyclopentyl-9H-purin-6-ylamino]-piperidin-1-yl}-1-(4-butyl-phenyl)-methanone]
pIC50 (cdk1/cyclin B): 7.05
pIC50 (cdk4/cyclin D1): 6.32

COc1cc(COC(=O)N2CCC(Nc3nc(N[C@H]4CC[C@H](N)CC4)nc4c3ncn4C3CCCC3)CC2)c([N+](=O)[O-])cc1OC [Compound 101, trans-4-[2-(4-Amino-cyclohexylamino)-9-cyclopentyl-9H-purin-6-ylamino]-piperidine-1-carboxylic acid 4,5-dimethoxy-2-nitro-benzyl ester dihydrochloride]
pIC50 (cdk4/cyclin D1): < 5.00

CC(C)=CC(=O)N1CCC(Nc2nc(N[C@H]3CC[C@H](N)CC3)nc3c2ncn3C2CCCC2)CC1 [Compound 30, trans 1-{4-[2-(4-Amino-cyclohexylamino)-9-cyclopentyl-9#H!-purin-6-ylamino]-piperidin-1-yl}-3-methyl-but-2-en-1-one dihydrochloride]
pIC50 (cdk1/cyclin B): 7.60
pIC50 (cdk4/cyclin D1): 6.17

Cl.Cl.N[C@H]1CC[C@H](Nc2nc(NC3CCN(S(=O)(=O)c4ccc(F)cc4)CC3)c3ncn(C4CCCC4)c3n2)CC1 [Compound 106, trans-N^2-(4-Amino-cyclohexyl)-9-cyclopentyl-N^6-[1-(4-fluoro-benzenesulfonyl)-piperidin-4-yl]-9H-purine-2,6-diamine dihydrochloride]
Mean Conc. in plasma [1, 4]: BLQ^a
Mean Conc. in plasma [1, 5]: BLQ
Mean Red Blood Cell to Plasma Ratio [2]: 3.9
Mean Red Blood Cell to Plasma Ratio [3]: 3.0

N[C@H]1CC[C@H](Nc2nc(NC3CCN(S(=O)(=O)c4cccs4)CC3)c3ncn(C4CCCC4)c3n2)CC1 [Compound 128, trans-N^2&-(4-Amino-cyclohexyl)-9-cyclopentyl-N^6-[1-(thiophene-2-sulfonyl)-piperidin-4-yl]-9H-purine-2,6-diamine dihydrochloride]
pIC50 (cdk1/cyclin B): 8.05
pIC50 (cdk4/cyclin D1): 8.30

C=CCCOC(=O)N1CCC(Nc2nc(N[C@H]3CC[C@H](N)CC3)nc3c2ncn3C2CCCC2)CC1 [Compound 100, trans-4-[2-(4-Amino-cyclohexylamino)-9-cyclopentyl-9H-purin-6-ylamino]-piperidine-1-carboxylic acid but-3-enyl ester dihydrochloride]
pIC50 (cdk4/cyclin D1): < 5.00

Cl.Cl.N[C@H]1CC[C@H](Nc2nc(NC3CCN(C(=O)Oc4ccc(Cl)cc4)CC3)c3ncn(C4CCCC4)c3n2)CC1 [Compound 88, trans-4-[2-(4-Amino-cyclohexylamino)-9-cyclopentyl-9H-purin-6-ylamino]-piperidine-1-carboxylic acid 4-chloro-phenyl ester dihydrochloride]
Mean Conc. in plasma ([1]; Cassette #3, single 15 mg/kg iv cassette dose (3 mg/kg/compound), 0.083 h): 1.4833 ± 0.2725 µg/mL
Mean Conc. in plasma ([1]; Cassette #3, single 15 mg/kg iv cassette dose (3 mg/kg/compound), 0.25 h): 0.4209 ± 0.0499 µg/mL
Mean Conc. in plasma ([1]; Cassette #3, single 15 mg/kg iv cassette dose (3 mg/kg/compound), 0.5 h): 0.1502 ± 0.0059 µg/mL
Mean Conc. in plasma ([1]; Cassette #3, single 15 mg/kg iv cassette dose (3 mg/kg/compound), 1 h): 0.0746 ± 0.0161 µg/mL
Mean Conc. in plasma ([1]; Cassette #3, single 15 mg/kg iv cassette dose (3 mg/kg/compound), 3 h): 0.0248 ± 0.0074 µg/mL
Mean Conc. in plasma ([1]; Cassette #3, single 15 mg/kg iv cassette dose (3 mg/kg/compound), 6 h): 0.0089 ± 0.0016 µg/mL
Mean Conc. in plasma ([1]; Cassette #3, single 15 mg/kg iv cassette dose (3 mg/kg/compound), 8 h): 0.0054 ± 0.002 µg/mL
Mean Conc. in plasma [1, 6]: BLQ
Mean Red Blood Cell to Plasma Ratio [2]: 2.6
Mean Red Blood Cell to Plasma Ratio [3]: 3.5

N[C@H]1CC[C@H](Nc2nc(NC3CCN(C(=O)/C=C/c4ccccc4)CC3)c3ncn(C4CCCC4)c3n2)CC1 [Compound 62, trans-(E)-1-{4-[2-(4-Amino-cyclohexylamino)-9-cyclopentyl-9H-purin-6-ylamino]-piperidin-1-yl}-3-phenyl-propenone dihydrochloride]
pIC50 (cdk1/cyclin B): 7.60
pIC50 (cdk4/cyclin D1): 6.78

COC(=O)c1ccccc1S(=O)(=O)N1CCC(Nc2nc(N[C@H]3CC[C@H](N)CC3)nc3c2ncn3C2CCCC2)CC1.Cl.Cl [Compound 111, trans-2-{4-[2-(4-Amino-cyclohexylamino)-9-cyclopentyl-9H-purin-6-ylamino]-piperidine-1-sulfonyl}-benzoic acid methyl ester dihydrochloride]
Mean concentration in plasma [1, 7]: BLQ
Mean Red Blood Cell to Plasma Ratio [2]: 1.2
Mean Red Blood Cell to Plasma Ratio [3]: 2.2

Cl.Cl.N[C@H]1CC[C@H](Nc2nc(NC3CCN(C(=O)c4cccc(C(F)(F)F)c4F)CC3)c3ncn(C4CCCC4)c3n2)CC1 [Compound 12, trans-1-{4-[2-(4-Amino-cyclohexylamino)-9-cyclopentyl-9H-purin-6-ylamino]-piperidin-1-yl}-1-(2-fluoro-3-trifluoromethyl-phenyl)-methanone dihydrochloride]
Mean concentration in plasma [1, 7]: BLQ
Mean Red Blood Cell to Plasma Ratio [2]: 3.6
Mean Red Blood Cell to Plasma Ratio [3]: 1.9

Cl.Cl.N[C@H]1CC[C@H](Nc2nc(NC3CCN(C(=O)Oc4ccccc4)CC3)c3ncn(C4CCCC4)c3n2)CC1 [Compound 85, trans-4-[2-(4-Amino-cyclohexylamino)-9-cyclopentyl-9H-purin-6-ylamino]-piperidine-1-carboxylic acid phenyl ester dihydrochloride]
Mean concentration in plasma ([1]; 0.083 h): 0.8433 ± 0.1245 µg/mL
Mean concentration in plasma ([1]; 0.25 h): 0.3416 ± 0.0451 µg/mL
Mean concentration in plasma ([1]; 0.5 h): 0.1638 ± 0.0157 µg/mL
Mean concentration in plasma ([1]; 1 h): 0.089 ± 0.0215 µg/mL
Mean concentration in plasma ([1]; 3 h): 0.0143 ± 0.0071 µg/mL
Mean concentration in plasma ([1]; 6 h): 0.0052 ± 0.0019 µg/mL
Mean concentration in plasma ([1]; 8 h): 0.0032 µg/mL
Mean concentration in plasma [1, 7]: BLQ
Mean Red Blood Cell to Plasma Ratio [2]: 7.1
Mean Red Blood Cell to Plasma Ratio [3]: 6.1

Cl.Cl.N[C@H]1CC[C@H](Nc2nc(NC3CCN(C(=O)Oc4ccc([N+](=O)[O-])cc4)CC3)c3ncn(C4CCCC4)c3n2)CC1 [Compound 89, trans-4-[2-(4-Amino-cyclohexylamino)-9-cyclopentyl-9H-purin-6-ylamino]-piperidine-1-carboxylic acid 4-nitro-phenyl ester dihydrochloride]
Mean Conc. in plasma ([1]; Cassette #4, single 15 mg/kg iv cassette dose (3 mg/kg/compound), 0.083 h): 0.642 ± 0.0495 µg/mL
Mean Conc. in plasma ([1]; Cassette #4, single 15 mg/kg iv cassette dose (3 mg/kg/compound), 0.25 h): 0.3033 ± 0.0343 µg/mL
Mean Conc. in plasma ([1]; Cassette #4, single 15 mg/kg iv cassette dose (3 mg/kg/compound), 0.5 h): 0.1424 ± 0.0027 µg/mL
Mean Conc. in plasma ([1]; Cassette #4, single 15 mg/kg iv cassette dose (3 mg/kg/compound), 1 h): 0.0524 ± 0.0042 µg/mL
Mean Conc. in plasma ([1]; Cassette #4, single 15 mg/kg iv cassette dose (3 mg/kg/compound), 3 h): 0.017 ± 0.0047 µg/mL
Mean Conc. in plasma ([1]; Cassette #4, single 15 mg/kg iv cassette dose (3 mg/kg/compound), 6 h): 0.0037 ± 0.001 µg/mL
Mean Conc. in plasma [1, 4]: 0.0038 ± 0.0005 µg/mL
Mean Conc. in plasma [1, 5]: BLQ
Mean Red Blood Cell to Plasma Ratio [2]: 4.2
Mean Red Blood Cell to Plasma Ratio [3]: 4.7

Cl.Cl.N[C@H]1CC[C@H](Nc2nc(NC3CCN(C(=O)Nc4ccc(C(F)(F)F)cc4)CC3)c3ncn(C4CCCC4)c3n2)CC1 [Compound 149, trans-4-[2-(4-Amino-cyclohexylamino)-9-cyclopentyl-9H-purin-6-ylamino]-piperidine-1-carboxylic acid (4-trifluoromethyl-phenyl)-amide dihydrochloride]
Mean Conc. in plasma [1, 6]: BLQ
Mean Red Blood Cell to Plasma Ratio [2]: 2.8
Mean Red Blood Cell to Plasma Ratio [3]: 3.4

COc1ccc(OC(=O)N2CCC(Nc3nc(N[C@H]4CC[C@H](N)CC4)nc4c3ncn4C3CCCC3)CC2)cc1.Cl.Cl [Compound 84, trans-4-[2-(4-Amino-cyclohexylamino)-9-cyclopentyl-9H-purin-6-ylamino]-piperidine-1-carboxylic acid 4-methoxy-phenyl ester dihydrochloride]
Mean Conc. in plasma ([1]; Cassette #2, single 18 mg/kg iv cassette dose (3 mg/kg/compound), 24 h): BLQ
Mean Red Blood Cell to Plasma Ratio [2]: 2.0
Mean Red Blood Cell to Plasma Ratio [3]: 3.5
